US5182289A, “Heterobicyclic compounds having antiinflammatory activity” (Schering Corporation, priority 1990, dated 1993)
Like-named read-outs stand apart in the source and are kept apart here. Values belong to the compound of their own block, whether it stands above or below them.

Key:
cyclooxygenase = target: T1, cyclooxygenase (Homo sapiens, UniProt P23219); test: Cyclooxygenase Assay with Human Platelets, HHT production; format: cell-based; conditions: 15 μM
T1 construct: Cyclooxygenase Assay with Human Platelets; endogenous in cells; host or cells: human blood platelets from healthy volunteers
Method: Cyclooxygenase Assay with Human Platelets
Blood is collected in acid-citrate-dextrose anticoagulant by venipuncture from normal healthy volunteers who said that they were not on any medication for the previous two weeks. Platelets are isolated by the procedure of Okuma and Uchino (Blood 54:1258-1271 (1979)). In brief, blood is centrifuged at 4° C. at 200×g for 10 minutes to sediment red and white cells. The platelet rich plasma (PRP) supernatant is removed and mixed with one-tenth volume of 77 mM EDTA, pH 7.2 and prostacyclin sodium salt is added to the PRP at a final concentration of 1 nanogram per milliliter(ng/mL). The PRP is centrifuged at 1700×g, 4° C. for 15 minutes. The platelet pellet is resuspended in the HEPES buffer described in the 5-lipoxygenase section above which additionally contained 1 ng/mL prostacyclin and 0.5 mM ethylene glycolbis(B-aminoethyl ether) N,N,N',N'-tetraacetic acid (EGTA) and the suspension is recentrifuged at 1,700×g, 4° C. for 15 minutes. The pellet is resuspended in HEPES buffer containing 0.5 mM EGTA and 1.5 mM CaCl2 at a cell count of 200,000 cells/ul. Platelets (0.2 ml of suspension) are preincubated with test compounds and the ^14 C-arachidonic acid plus the calcium ionophore A23187 stimulant exactly as described for the 5-lipoxygenase assay. The cyclooxygenase product 12-hydroxyheptadecatrienoic acid (HHT) is isolated and quantitated by the HPLC system used for the 5-lipoxygenaseassay. HHT elutes from this system at about eleven minutes. Results are expressed as percent inhibition of HHT production by the test compounds versus the test vehicle alone.

5-lipoxygenase = target: T2, 5-lipoxygenase (Homo sapiens, UniProt P09917); test: 5-Lipoxygenase Assay in human polymorphonuclear (PMN) leukocytes, 5-HETE production; format: cell-based
T2 construct: Human polymorphonuclear (PMN) leukocytes (neutrophils) are obtained from normal healthy volunteers; endogenous in cells; host or cells: human polymorphonuclear leukocytes (neutrophils) from blood of healthy volunteers
T2 sequence (P09917 1-674): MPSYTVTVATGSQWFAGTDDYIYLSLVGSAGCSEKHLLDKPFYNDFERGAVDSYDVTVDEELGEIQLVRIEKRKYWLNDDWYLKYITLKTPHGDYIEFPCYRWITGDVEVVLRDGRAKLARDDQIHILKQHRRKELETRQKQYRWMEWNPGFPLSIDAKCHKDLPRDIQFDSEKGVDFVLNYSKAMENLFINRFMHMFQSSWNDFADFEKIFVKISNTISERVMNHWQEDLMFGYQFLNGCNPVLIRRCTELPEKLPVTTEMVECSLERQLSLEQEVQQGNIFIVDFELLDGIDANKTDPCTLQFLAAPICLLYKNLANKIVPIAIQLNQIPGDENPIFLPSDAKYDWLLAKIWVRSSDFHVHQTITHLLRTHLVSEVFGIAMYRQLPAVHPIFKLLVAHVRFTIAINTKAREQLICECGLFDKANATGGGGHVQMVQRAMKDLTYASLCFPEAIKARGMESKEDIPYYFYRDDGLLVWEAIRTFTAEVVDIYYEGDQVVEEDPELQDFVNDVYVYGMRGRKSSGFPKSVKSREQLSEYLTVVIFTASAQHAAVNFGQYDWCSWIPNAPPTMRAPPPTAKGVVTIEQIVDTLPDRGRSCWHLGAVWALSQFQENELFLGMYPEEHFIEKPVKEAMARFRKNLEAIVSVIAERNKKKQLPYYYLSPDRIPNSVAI
Method: Human polymorphonuclear (PMN) leukocytes (neutrophils) are obtained from normal healthy volunteers by venipuncture and collected with heparin anticoagulant. Neutrophils are isolated by Dextran/Ficol sedimentation as described (Billah et al, J. Biol. Chem. 260, 6899-6906 (1985)). In brief, 30 ml of blood is mixed with 5 ml of dextran (Sigma) solution and kept at 37° C. for 30 min. The upper white cellrich layer is removed and 10 ml is layered on 9 ml of Ficol-Paque solution (Pharmacia) and centrifuged at 280×g for 10 min. at 5° C. The supernatant is removed and the neutrophil pellet is resuspended in HEPES buffer containing 25 mM N-2-hydroxyethylpiperazine-N^1 -2 ethanesulfonic acid(HEPES), 125 mM NaCl, 2.5 mM KCL, 0.7 mM MgCl2, 0.5 mM and 10 mM glucose at pH 7.4. The red cells in the suspension are lysed by hypotonic shock. The neutrophils are washed by centrifugation in HEPES buffer two times and finally resuspended at a concentration of 20×10^6 cells/ml in the presence of 1 mM CaCl2.
Neutrophils (0.2 ml of suspension) are preincubated with dimethylsulfoxide (DMSO) vehicle with or without test compound (1 ul) for 4 minutes then incubated for 5 minutes with ^14 C-arachidonic acid (Amersham, 59 Ci/mole) at a 9 uM final concentration, and the calcium ionophore A23187 (Calbiochem) at a 1 uM final concentration. These stimulants are added in 10 ul of water:ethanol (9:1). The reaction is stopped by addition of methanol (0.4 ml), and cellular debris is removed by centrifugation. Aliquots (100 ul) of the incubations are run on a Waters two pump high performance liquid chromatography (HPLC) system fitted with a DuPont Zorbax ODS, 5 u, 4×80 […] Reliance Cartridge column and C18 "Guard Pak". The column is initially eluted at 2 ml/min with 80 percent of the mixture water:methanol:acetic acid (46:54:0.08) containing 1 mM EDTA adjusted to pH 6.0 with ammonium hydroxide (Pump A) and 20% methanol (Pump B). At 10 minutes, a linear gradient is established. to reach 100 percent methanol (Pump B) at 27 minutes. Between 27 and 28 minutes, methanol is exchanged for the initial eluting solvent and by 35 minutes the column is reequilibrated for the next sample. The effluent is analyzed by a continuous flow radioactivity monitor (model ROMONA-D) interfaced with a Hewlett Packard Lab Automation System for quantitation of radioactive products. This includes the major 5-lipoxygenase product, 5-hydroxyeicosatetraenoic acid (5-HETE) which elutes at 20 minutes. The results with and without test compound are used to calculate percent inhibition of 5-HETE production.

[1] = system: Reversed Passive Arthus Reaction (RPAR) in the pleural cavity; test: Reversed Passive Arthus Reaction (RPAR) in the pleural cavity: cells and fluid; format: in vivo, male rats; conditions: dose 25 mpk; for inhibition in vivo at 25 mg/kg: Rattus norvegicus, 4 h; for RPAR-Pleural Cavity Percent Inhibition cells / RPAR-Pleural Cavity Percent Inhibition fluid: Table 3A, formula (IIi)
Method: Reversed Passive Arthus Reaction (RPAR) Assay
Groups of 4 male rats were injected in the penile vein with antigen (1 mg BSA in 0.2 mL of saline per rat) and 0.5 hour later injected in the pleural cavity with antibody (1.0 mg antibody protein in the IgG fraction of rabbit anti-BSA in 0.2 mL). […] After 4 hours the animals were killed with CO2, and the pleural cavities were opened and the exudate drained into a graduated conical glass centrifuge tube containing indomethacin (1.8 ug) and nordihydroguaiaretic acid (NDGA) (15 ug) to block ex vivo metabolite synthesis. The volume of the exudate was measured. The cavity was then washed out with saline-EDTA to achieve a final volume of 5.0 mL. The number of cells were determined in a Colulter Counter. The cells were spun-down (1000×g) and the exudate supernatant was added to 4 volumes of 95% ethanol and samples were kept on ice for 30 minutes. After removal of the protein precipitate (2,500×g) the ethanol extract of the exudate was dried under N2 and then stored at -20° C. For radioimmunoassay (RIA) analysis the samples were redissolved in water to a volume of 1 mL per rat. Utilizing internally spiked samples, recovery of TXB2 (tritiated thromboxane B2) and LTE4 (tritiated leukotriene-E4) from exudates was determined to be 84±2% (SEM) and 89±2% (N=4), respectively. Exudate samples were directly assayed in duplicate with the commercial ^3 H-TXB2 RIA kit from New England Nuclear and the ^3 H-LTC4 /D4 /E4 kit from Amersham. The assay was validated using reversed-phase HPLC analysis of LTs in the standard procedure described by M. W. Musch, R. W. Bryant, C. Coscollaela, R. F. Myers and M. I. Siegel, Prostaglandins, Vol. 29, pp 405-430 (1985). Samples of ethanol exudate extract were "spiked" with ^3 H-LTs to follow HPLC purification and recovery.

[2] = read-out: RPAR-Pleural Cavity % Inhibition cells
[3] = read-out: RPAR-Pleural Cavity % Inhibition fluid

T1 sequence (P23219 24-599): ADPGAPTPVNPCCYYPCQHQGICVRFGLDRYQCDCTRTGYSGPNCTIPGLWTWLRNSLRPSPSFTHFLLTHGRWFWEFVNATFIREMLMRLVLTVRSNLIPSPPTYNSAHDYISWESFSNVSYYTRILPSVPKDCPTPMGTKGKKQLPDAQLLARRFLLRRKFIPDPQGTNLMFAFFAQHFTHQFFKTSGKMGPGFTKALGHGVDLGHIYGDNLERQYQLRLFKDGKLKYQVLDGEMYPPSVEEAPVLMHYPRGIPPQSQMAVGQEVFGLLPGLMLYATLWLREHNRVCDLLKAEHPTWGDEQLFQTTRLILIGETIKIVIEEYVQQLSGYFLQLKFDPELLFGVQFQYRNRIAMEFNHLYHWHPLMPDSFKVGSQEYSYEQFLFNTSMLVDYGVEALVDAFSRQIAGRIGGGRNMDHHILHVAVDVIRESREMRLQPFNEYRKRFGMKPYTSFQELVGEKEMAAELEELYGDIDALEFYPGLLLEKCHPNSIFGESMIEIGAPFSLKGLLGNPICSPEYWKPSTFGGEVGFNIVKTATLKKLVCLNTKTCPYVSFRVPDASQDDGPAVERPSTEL

Compound: CC1(F)C(=O)N(c2ccccc2)c2ncccc21 (stereo not shown) [Compound 4, 1,3-dihydro-3-fluoro-3-methyl-1-phenyl-2H-pyrrolo[2,3-b]pyridin-2-one]
- inhibition in vivo at 25 mg/kg [1, 2]: 50%
- inhibition in vivo at 25 mg/kg [1, 3]: 35%

Compound: CC1(C)C(=S)N(c2ccccc2)c2ncccc21 [Compound 7, 1,3-dihydro-3,3-dimethyl-1-phenyl-2H-pyrrolo[2,3-b]pyridin-2-thione]
- inhibition in vivo at 25 mg/kg [1, 2]: 35%
- inhibition in vivo at 25 mg/kg [1, 3]: 33%

Compound: CSc1ccc(N2C(=O)C(C)(C)c3cccnc32)cc1 [Compound 10, 1,3-dihydro-3,3-dimethyl-1-[4-(methylthio)phenyl]-2H-pyrrolo[2,3-b]pyridin-2-one]
- inhibition in vivo at 25 mg/kg [1, 2]: 29%
- inhibition in vivo at 25 mg/kg [1, 3]: 37%

Compound: CC(=O)OCCSC1C(=O)N(c2ccccc2)c2ncccc21 (stereo not shown) [Compound 30, 1,3-dihydro-3-[2-(acetoxy)-ethylthio]-1-phenyl-2H-pyrrolo[2,3-b]pyridin-2-one]
- inhibition at 15 µM (5-lipoxygenase; 15 μM): 26%

Compound: CN1C(=O)C(S(=O)(=O)c2ccccc2)c2cccnc21 (stereo not shown) [Compound 31, 1,3-dihydro-1-methyl-3-(phenylsulfonyl)-2H-pyrrolo[2,3-b]pyridin-2-one]
- inhibition at 15 µM (5-lipoxygenase; 15 μM): 10%

Compound: O=C(O)Cc1cccnc1Nc1cccc(C(F)(F)F)c1 [Compound 45, 2-(3-trifluoromethylphenylamino)-3-pyridine acetic acid]
- RPAR-Pleural Cavity Percent Inhibition cells [1]: 22%
- RPAR-Pleural Cavity Percent Inhibition fluid [1]: 14%

Compound: CC(C)(C(=O)O)c1cccnc1Nc1ccc(Cl)cc1 [Compound 46, sodium 2-(4-chlorophenylamino)-α,α-dimethyl-3-pyridine acetate]
- RPAR-Pleural Cavity Percent Inhibition cells [1]: 62%
- RPAR-Pleural Cavity Percent Inhibition fluid [1]: 71%

Compound: O=C(O)Cc1cccnc1Nc1ccc(Cl)c(Cl)c1 [Compound 47, sodium 2-(3,4-dichlorophenylamino)-3-pyridine acetate]
- RPAR-Pleural Cavity Percent Inhibition cells [1]: 16%
- RPAR-Pleural Cavity Percent Inhibition fluid [1]: 19%

Compound: O=C(O)Cc1cccnc1Nc1ccc(Cl)cc1 [Compound 48, sodium 2-(4-chlorophenylamino)-3-pyridine acetate]
- RPAR-Pleural Cavity Percent Inhibition cells [1]: 0%
- RPAR-Pleural Cavity Percent Inhibition fluid [1]: 0%

Compound: CC(C(=O)O)c1cccnc1Nc1ccc(Cl)cc1 (stereo not drawn) [Compound 49, sodium 2-(4-chlorophenylamino)-α-methyl-3-pyridine acetate]
- RPAR-Pleural Cavity Percent Inhibition cells [1]: 67%
- RPAR-Pleural Cavity Percent Inhibition fluid [1]: 54%

More lines, now with the values ahead:

- % inhibition of HHT production in human platelets (cyclooxygenase): 49%
- PMN Assay % Inhibition 5-HETE (5-lipoxygenase; 15 μM): 47%
- PMN Assay % Inhibition 5-HETE (5-lipoxygenase; 50 μM): 81%
Compound: 1,3-dihydro-3-(2-methoxyphenylthio)-1-phenyl-2H-pyrrolo[2,3-b]pyridin-2-one [Compound 23]

- % inhibition of HHT production in human platelets at 15 µM (cyclooxygenase; read-out: PMN Assay % Inhibition HHT): 23%
- inhibition at 15 µM (5-lipoxygenase; 15 μM): 67%
Compound: O=C1C(Sc2ccccc2)c2cccnc2N1c1ccccc1 (stereo not shown) [Compound 11, 1,3-dihydro-1-phenyl-3-(phenylthio)-2H-pyrrolo[2,3-b]pyridin-2-one]

- inhibition at 15 µM (5-lipoxygenase; 15 μM): 79%
Compound: O=C1C(Sc2ccccc2)c2cccnc2N1c1cccc(C(F)(F)F)c1 (stereo not shown) [Compound 12, 1,3-dihydro-3-(phenylthio)-1-(3-trifluoromethylphenyl)-2H-pyrrolo[2,3-b]pyridin-2-one]

- inhibition at 50 µM (5-lipoxygenase; 50 μM): 84%
Compound: CC(C)c1ccc(N2C(=O)C(Sc3ccccc3)c3cccnc32)cc1 (stereo not shown) [Compound 15, 1,3-dihydro-1-(4-(1-methylethyl)-phenyl)-3-(phenylthio)-2H-pyrrolo[2,3-b]pyridin-2-one]

- inhibition at 15 µM (5-lipoxygenase; 15 μM): 61%
Compound: COc1ccc(SC2C(=O)N(c3ccccc3)c3ncccc32)cc1 (stereo not shown) [Compound 21, 1,3-dihydro-3-(4-methoxyphenylthio)-1-phenyl-2H-pyrrolo[2,3-b]pyridin-2-one]

- inhibition at 15 µM (5-lipoxygenase; 15 μM): 24%
Compound: CN1C(=O)C([S+]([O-])c2ccccc2)c2cccnc21 (stereo not shown) [Compound 24, 1,3-dihydro-1-methyl-3-(phenylsulfinyl)-2H-pyrrolo[2,3-b]pyridin-2-one]

- inhibition at 15 µM (5-lipoxygenase; 15 μM): 8%
Compound: O=C1C(SCCO)c2cccnc2N1c1ccccc1 (stereo not shown) [Compound 25, 1,3-dihydro-3-(2-hydroxyethylthio)-1-phenyl-2H-pyrrolo[2,3-b]pyridin-2-one]

- inhibition at 15 µM (5-lipoxygenase; 15 μM): 16%
Compound: O=C1C(Sc2ccccc2)c2cccnc2N1Cc1ccccc1 (stereo not shown) [Compound 27, 1,3-dihydro-1-(phenylmethyl)-3-(phenylthio)-2H-pyrrolo[2,3-b]pyridin-2-one]

- inhibition at 15 µM (5-lipoxygenase; 15 μM): 56%
Compound: CC(=O)C1(SCCO)C(=O)N(c2ccccc2)c2ncccc21 (stereo not shown) [Compound 29]

- inhibition at 15 µM (5-lipoxygenase; 15 μM): 21%
Compound: CSC1(C)C(=O)N(c2ccccc2)c2ncccc21 (stereo not shown) [Compound 32, 1,3-dihydro-3-methyl-3-(methylthio)-1-phenyl--2H-pyrrolo[2,3-b]pyridin-2-one]
